Laboratory results from ChEMBL document CHEMBL3885881, “DrugMatrix”.

Organism: Rattus norvegicus
Assay: DrugMatrix - Regimen: Daily Repeat
Format: toxicity, organism-based, Sprague-Dawley
Parameters: regimen Daily Repeat, gender Male, age 6-8 weeks
Conditions: in vivo, po, route oral GAVAGE, vehicle .5 % CMC; for ABSOLUTE BASOPHIL / ABSOLUTE EOSINOPHIL / ABSOLUTE LYMPHOCYTE / ABSOLUTE MONOCYTE / ABSOLUTE SEGMENTED NEUTROPHIL / BASOPHIL / EOSINOPHIL / ERYTHROCYTE COUNT / HEMATOCRIT / HEMOGLOBIN / LEUKOCYTE COUNT / LYMPHOCYTE / MEAN CORPUSCULAR HEMOGLOBIN / MEAN CORPUSCULAR HEMOGLOBIN CONCENTRATION / MEAN CORPUSCULAR VOLUME / MONOCYTE / NEUTROPHIL / NUCLEATED RED BLOOD CELLS / PLATELET COUNT: tissue Blood; for ALANINE AMINOTRANSFERASE / ALBUMIN / ALKALINE PHOSPHATASE / ASPARTATE AMINOTRANSFERASE / BLOOD UREA NITROGEN / CARBON DIOXIDE / CHLORIDE / CHOLESTEROL / CREATINE PHOSPHOKINASE / CREATININE / GLUCOSE / LACTATE DEHYDROGENASE / LIPASE / PHOSPHORUS / POTASSIUM / SODIUM / TOTAL BILIRUBIN / TOTAL PROTEIN / URIC ACID: tissue Plasma
[1] = 0 mg/kg, 72 h, dose level Control, time 3 day
[2] = 0 mg/kg, 120 h, dose level Control, time 5 day
[3] = 50 mg/kg, 72 h, dose level Low, time 3 day

CC(=O)O[C@]1(C(C)=O)CC[C@H]2[C@@H]3C=C(Cl)C4=CC(=O)[C@@H]5C[C@@H]5[C@]4(C)[C@H]3CC[C@@]21C [CYPROTERONE ACETATE]
ABSOLUTE BASOPHIL [1]: 0 CELLS/uL
ABSOLUTE EOSINOPHIL [1]: 0 CELLS/uL
ABSOLUTE LYMPHOCYTE [1]: 12191.17 CELLS/uL
ABSOLUTE MONOCYTE [1]: 183.17 CELLS/uL
ABSOLUTE SEGMENTED NEUTROPHIL [1]: 1192.33 CELLS/uL
BASOPHIL [1]: 0%
EOSINOPHIL [1]: 0%
ERYTHROCYTE COUNT [1]: 5.51 x10E6/uL
HEMATOCRIT [1]: 35.45%
HEMOGLOBIN [1]: 13.82 G/DL
LEUKOCYTE COUNT [1]: 13.57 x10E3/uL
LYMPHOCYTE [1]: 89.83%
MEAN CORPUSCULAR HEMOGLOBIN [1]: 25.1 pg
MEAN CORPUSCULAR HEMOGLOBIN CONCENTRATION [1]: 38.98 G/DL
MEAN CORPUSCULAR VOLUME [1]: 64.42 fL
MONOCYTE [1]: 1.33%
NEUTROPHIL [1]: 8.83%
NUCLEATED RED BLOOD CELLS [1]: 0 /100WBC
PLATELET COUNT [1]: 1118.17 x10E3/uL
ALANINE AMINOTRANSFERASE [1]: 55 u/L
ALBUMIN [1]: 4.15 G/DL
ALKALINE PHOSPHATASE [1]: 449.5 u/L
ASPARTATE AMINOTRANSFERASE [1]: 112.83 u/L
BLOOD UREA NITROGEN [1]: 17.33 mg/dL
CARBON DIOXIDE [1]: 29.5 mmol/L
CHLORIDE [1]: 101 MEQ/L
CHOLESTEROL [1]: 70 mg/dL
CREATINE PHOSPHOKINASE [1]: 1325.83 u/L
CREATININE [1]: 0.18 mg/dL
GLUCOSE [1]: 171.5 mg/dL
LACTATE DEHYDROGENASE [1]: 386 u/L
LIPASE [1]: 10 u/L
PHOSPHORUS [1]: 11.57 mg/dL
POTASSIUM [1]: 6.21 MEQ/L
SODIUM [1]: 141.65 MEQ/L
TOTAL BILIRUBIN [1]: 0.15 mg/dL
TOTAL PROTEIN [1]: 5.75 G/DL
URIC ACID [1]: 1.28 mg/dL
ABSOLUTE BASOPHIL [2]: 0 CELLS/uL
ABSOLUTE EOSINOPHIL [2]: 138.17 CELLS/uL
ABSOLUTE LYMPHOCYTE [2]: 13283.17 CELLS/uL
ABSOLUTE MONOCYTE [2]: 303.83 CELLS/uL
ABSOLUTE SEGMENTED NEUTROPHIL [2]: 1308.17 CELLS/uL
BASOPHIL [2]: 0%
EOSINOPHIL [2]: 1%
ERYTHROCYTE COUNT [2]: 5.32 x10E6/uL
HEMATOCRIT [2]: 33.8%
HEMOGLOBIN [2]: 13.63 G/DL
LEUKOCYTE COUNT [2]: 15.03 x10E3/uL
LYMPHOCYTE [2]: 88.33%
MEAN CORPUSCULAR HEMOGLOBIN [2]: 25.68 pg
MEAN CORPUSCULAR HEMOGLOBIN CONCENTRATION [2]: 40.35 G/DL
MEAN CORPUSCULAR VOLUME [2]: 63.67 fL
MONOCYTE [2]: 1.83%
NEUTROPHIL [2]: 8.83%
NUCLEATED RED BLOOD CELLS [2]: 0 /100WBC
PLATELET COUNT [2]: 1097.5 x10E3/uL
ALANINE AMINOTRANSFERASE [2]: 54.5 u/L
ALBUMIN [2]: 4.27 G/DL
ALKALINE PHOSPHATASE [2]: 337 u/L
ASPARTATE AMINOTRANSFERASE [2]: 94.67 u/L
BLOOD UREA NITROGEN [2]: 17 mg/dL
CARBON DIOXIDE [2]: 28.33 mmol/L
CHLORIDE [2]: 101.5 MEQ/L
CHOLESTEROL [2]: 71.33 mg/dL
CREATINE PHOSPHOKINASE [2]: 628.17 u/L
CREATININE [2]: 0.19 mg/dL
GLUCOSE [2]: 177.83 mg/dL
LACTATE DEHYDROGENASE [2]: 500.5 u/L
LIPASE [2]: 9.5 u/L
PHOSPHORUS [2]: 12.3 mg/dL
POTASSIUM [2]: 5.63 MEQ/L
SODIUM [2]: 143.03 MEQ/L
TOTAL BILIRUBIN [2]: 0.2 mg/dL
TOTAL PROTEIN [2]: 6.02 G/DL
URIC ACID [2]: 1.5 mg/dL
ABSOLUTE BASOPHIL [3]: 0 CELLS/uL
ABSOLUTE EOSINOPHIL [3]: 48.33 CELLS/uL
ABSOLUTE LYMPHOCYTE [3]: 14035.67 CELLS/uL
ABSOLUTE MONOCYTE [3]: 48.33 CELLS/uL
ABSOLUTE SEGMENTED NEUTROPHIL [3]: 1667.67 CELLS/uL
BASOPHIL [3]: 0%
EOSINOPHIL [3]: 0.33%
ERYTHROCYTE COUNT [3]: 5.31 x10E6/uL
HEMATOCRIT [3]: 35.1%
HEMOGLOBIN [3]: 13.77 G/DL
LEUKOCYTE COUNT [3]: 15.8 x10E3/uL
LYMPHOCYTE [3]: 88.67%
MEAN CORPUSCULAR HEMOGLOBIN [3]: 25.93 pg
MEAN CORPUSCULAR HEMOGLOBIN CONCENTRATION [3]: 39.23 G/DL
MEAN CORPUSCULAR VOLUME [3]: 66.13 fL
MONOCYTE [3]: 0.33%
NEUTROPHIL [3]: 10.67%
NUCLEATED RED BLOOD CELLS [3]: 0 /100WBC
PLATELET COUNT [3]: 1211 x10E3/uL
ALANINE AMINOTRANSFERASE [3]: 71.67 u/L
ALBUMIN [3]: 4.43 G/DL
ALKALINE PHOSPHATASE [3]: 396.67 u/L
ASPARTATE AMINOTRANSFERASE [3]: 84.67 u/L
BLOOD UREA NITROGEN [3]: 21.67 mg/dL
CARBON DIOXIDE [3]: 28 mmol/L
CHLORIDE [3]: 100.67 MEQ/L
CHOLESTEROL [3]: 88.33 mg/dL
CREATINE PHOSPHOKINASE [3]: 202.33 u/L
CREATININE [3]: 0.15 mg/dL
GLUCOSE [3]: 155.67 mg/dL
LACTATE DEHYDROGENASE [3]: 202 u/L
LIPASE [3]: 10.67 u/L
PHOSPHORUS [3]: 11.13 mg/dL
POTASSIUM [3]: 6.55 MEQ/L
SODIUM [3]: 141.9 MEQ/L
TOTAL BILIRUBIN [3]: 0.13 mg/dL
TOTAL PROTEIN [3]: 6.27 G/DL
URIC ACID [3]: 1.47 mg/dL
